Experiments:
[1] = molecular target: Bromodomain-containing protein 4 (Homo sapiens, UniProt O60885); test: Displacement of Bio-JQ1 from recombinant human His6 tagged BRD4 bromodomain 1 by alphascreen assay
[2] = molecular target: Transcription initiation factor TFIID subunit 1 (Homo sapiens, UniProt P21675); test: Displacement of biotinylated probe from human TAF1 bromodomain 2 (1522 to 1656 residues) expressed in Escherichia coli BL21 (DE3) by alphascreen assay
Transcription initiation factor TFIID subunit 1, sequence (P21675 whole entry, the tested form may be a part): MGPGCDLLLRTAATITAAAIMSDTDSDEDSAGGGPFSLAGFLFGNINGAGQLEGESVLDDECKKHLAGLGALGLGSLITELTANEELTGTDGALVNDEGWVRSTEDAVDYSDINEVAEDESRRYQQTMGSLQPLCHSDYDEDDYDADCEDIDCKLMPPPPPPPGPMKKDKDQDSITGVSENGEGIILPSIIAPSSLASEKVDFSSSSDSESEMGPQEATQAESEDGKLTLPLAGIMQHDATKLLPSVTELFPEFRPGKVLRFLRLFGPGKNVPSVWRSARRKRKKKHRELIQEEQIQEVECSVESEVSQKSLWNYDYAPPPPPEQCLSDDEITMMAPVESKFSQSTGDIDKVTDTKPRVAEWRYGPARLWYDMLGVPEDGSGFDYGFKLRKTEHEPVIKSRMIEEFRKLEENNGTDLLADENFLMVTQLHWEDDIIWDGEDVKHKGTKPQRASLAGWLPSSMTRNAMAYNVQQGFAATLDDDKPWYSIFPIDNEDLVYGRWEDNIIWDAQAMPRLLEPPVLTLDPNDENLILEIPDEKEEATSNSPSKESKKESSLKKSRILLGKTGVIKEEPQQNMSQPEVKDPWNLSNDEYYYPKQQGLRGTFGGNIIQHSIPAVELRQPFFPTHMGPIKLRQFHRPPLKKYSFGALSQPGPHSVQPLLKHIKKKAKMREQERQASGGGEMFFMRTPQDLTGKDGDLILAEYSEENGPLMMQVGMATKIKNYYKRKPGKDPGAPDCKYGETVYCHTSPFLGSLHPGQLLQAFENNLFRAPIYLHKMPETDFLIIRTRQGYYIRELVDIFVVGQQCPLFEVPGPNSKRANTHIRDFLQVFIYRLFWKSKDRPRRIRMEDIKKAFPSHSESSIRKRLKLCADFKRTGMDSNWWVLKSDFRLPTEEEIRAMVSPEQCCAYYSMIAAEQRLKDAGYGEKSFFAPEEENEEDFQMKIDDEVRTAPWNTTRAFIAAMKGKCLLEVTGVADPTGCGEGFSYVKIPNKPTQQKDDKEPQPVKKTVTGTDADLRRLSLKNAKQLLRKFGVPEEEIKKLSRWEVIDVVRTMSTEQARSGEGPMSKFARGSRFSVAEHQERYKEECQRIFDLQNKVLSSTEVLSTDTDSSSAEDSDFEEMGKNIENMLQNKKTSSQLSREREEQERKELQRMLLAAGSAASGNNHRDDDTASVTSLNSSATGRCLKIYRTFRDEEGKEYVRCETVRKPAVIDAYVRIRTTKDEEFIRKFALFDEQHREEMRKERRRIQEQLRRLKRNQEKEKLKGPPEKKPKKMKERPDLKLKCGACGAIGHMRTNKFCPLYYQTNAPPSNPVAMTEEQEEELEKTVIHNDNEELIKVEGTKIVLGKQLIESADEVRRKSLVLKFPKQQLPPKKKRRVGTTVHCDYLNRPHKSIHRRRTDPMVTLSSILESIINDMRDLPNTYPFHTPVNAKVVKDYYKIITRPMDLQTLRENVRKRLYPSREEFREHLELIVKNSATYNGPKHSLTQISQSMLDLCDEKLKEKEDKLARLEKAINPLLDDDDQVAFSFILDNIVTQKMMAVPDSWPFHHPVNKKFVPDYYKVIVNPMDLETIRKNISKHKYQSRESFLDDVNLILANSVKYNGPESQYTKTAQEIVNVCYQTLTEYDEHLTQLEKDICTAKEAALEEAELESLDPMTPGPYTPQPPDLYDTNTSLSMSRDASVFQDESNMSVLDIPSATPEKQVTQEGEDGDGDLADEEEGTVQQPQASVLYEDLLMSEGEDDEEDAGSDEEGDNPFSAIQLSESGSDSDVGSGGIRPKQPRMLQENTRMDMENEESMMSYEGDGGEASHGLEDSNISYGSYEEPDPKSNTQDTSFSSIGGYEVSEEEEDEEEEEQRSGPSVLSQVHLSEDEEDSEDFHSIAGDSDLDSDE

SMILES	IC50 [1] [nM]	IC50 [2] [nM]
CC[C@@H]1C(=O)Nc2cnc(Nc3ccc(C(=O)NC4CCN(C)CC4)cc3OC)nc2N1C1CCCC1	> 10000	> 10000
CC[C@@H]1C(=O)N(CC)c2cnc(Nc3ccc(C(=O)NC4CCN(C)CC4)cc3OC)nc2N1C1CCCC1	690	410
CC[C@@H]1C(=O)N(C)c2cnc(Nc3ccc(C(=O)NC4CCN(C)CC4)cc3)nc2N1C1CCCC1	280	150
CC[C@@H]1C(=O)N(C)c2cnc(Nc3ccc(C(=O)NC4CCN(C)CC4)cc3OC3CCCC3)nc2N1C1CCCC1	33	100
CC[C@@H]1C(=O)N(C)c2cnc(Oc3ccc(C(=O)NC4CCN(C)CC4)cc3OC)nc2N1C1CCCC1	620	> 10000
CC[C@@H]1C(=O)N(C)c2cnc(Nc3ccc(C(=O)NC4CCN(C)CC4)cc3OC3CCC3)nc2N1C1CCCC1	62	110
C[C@@H]1C(=O)N(C)c2cnc(Nc3ccc(C(=O)NC4CCN(C)CC4)cc3)nc2N1C1CCCC1	68	87
CC[C@@H]1C(=O)N(C)c2cnc(Nc3ccc(C(=O)NC4CCN(C)CC4)cc3OC(C)C)nc2N1C1CCCC1	63	210
COc1cc(C(=O)N2CCC(O)CC2)ccc1Nc1ccc2c(n1)N(Cc1ccccc1)[C@H](C)C(=O)N2C	240	720
C=CCCN1C(=O)[C@@H](C)N(C2CCOCC2)c2nc(Nc3ccc(C(=O)NC4CCN(C)CC4)cc3OC)ccc21	> 10000	82
COc1cc(C(=O)NC2CCN(C)CC2)ccc1Nc1ccc2c(n1)N(C1CCOCC1)[C@H](C)C(=O)N2C	49	< 10
CC[C@@H]1C(=O)N(C)c2ccc(Nc3ccc(C(=O)NC4CCN(C)CC4)cc3OC)nc2N1C1CCCC1	150	450
COc1cc(C(=O)N2CCC(O)CC2)ccc1Nc1ccc2c(c1C)N(C)[C@H](C)C(=O)N2C	> 10000	980
CC(C)Oc1cc(C(=O)NC2CCN(C)CC2)ccc1Nc1ncc2c(n1)N(C1CCCC1)[C@H](C)C(=O)N2C	220	320
COc1cc(C(=O)NC2CCN(C)CC2)ccc1Nc1ccc2c(n1)N1CCCC[C@@H]1C(=O)N2C	2700	63
CC[C@@H]1C(=O)N(C)c2cnc(N(C)c3ccc(C(=O)NC4CCN(C)CC4)cc3OC)nc2N1C1CCCC1	100	> 10000
C[C@@H]1C(=O)N(C)c2ccc(Nc3ccc(C(=O)NC4CCN(C)CC4)cc3)nc2N1C1CCCC1	190	340

Other lines, results leading:

IC50 [1] [nM]	IC50 [2] [nM]	SMILES
2100	> 10000	COc1cc(C(=O)N2CCC(O)CC2)ccc1Nc1cc2c(cc1C)N(C)C(=O)[C@@H](C)N2C1CCCC1
47	93	COc1cc(C(=O)N2CCC(O)CC2)ccc1Nc1ccc2c(n1)N(C1CCCC1)[C@H](C)C(=O)N2C
7200	210	COc1cc(C(=O)N2CCC(O)CC2)ccc1Nc1ccc2c(n1)N1CCCC[C@@H]1C(=O)N2C
110	580	COc1cc(C(=O)N2CCC(O)CC2)ccc1Nc1ccc2c(c1)N(C1CCCC1)[C@H](C)C(=O)N2C
4400	570	C=CCCN1C(=O)[C@@H](C)N(C2CCCC2)c2nc(Nc3ccc(C(=O)N4CCC(O)CC4)cc3OC)ccc21
7300	750	COc1cc(C(=O)N2CCC(O)CC2)ccc1Nc1cc2c(cc1OC)N(C)C(=O)[C@@H](C)N2C1CCCC1
48	31	C[C@@H]1C(=O)N(C)c2ccc(Nc3ccc(C(=O)NC4CCN(C)CC4)cc3OC3CCCC3)nc2N1C1CCCC1
130	89	CC(C)Oc1cc(C(=O)NC2CCN(C)CC2)ccc1Nc1ccc2c(n1)N(C1CCCC1)[C@H](C)C(=O)N2C
140	38	COc1cc(C(=O)N2CCC(O)CC2)ccc1Nc1ccc2c(n1)N(C1CCOCC1)[C@H](C)C(=O)N2C
150	72	COc1cc(C(=O)N2CCC(O)CC2)ccc1Nc1ccc2c(n1)N(C1CCCCC1)[C@H](C)C(=O)N2C
4500	1700	C=CCN1C(=O)[C@@H](C)N(C2CCCC2)c2nc(Nc3ccc(C(=O)N4CCC(O)CC4)cc3OC)ccc21
220	240	COc1cc(C(=O)N2CCC(O)CC2)ccc1Nc1ccc2c(n1)N(C1CCCCCC1)[C@H](C)C(=O)N2C
680	4600	COc1cc(C(=O)N2CCC(O)CC2)ccc1Nc1cc2c(cc1F)N(C)C(=O)[C@@H](C)N2C1CCCC1
37	16	COc1cc(C(=O)NC2CCN(C)CC2)ccc1Nc1ccc2c(n1)N(C1CCCC1)[C@H](C)C(=O)N2C
140	300	COc1cc(C(=O)N2CCC(O)CC2)ccc1Nc1ccc2c(n1)N(C1CCC(C)(C)C1)[C@H](C)C(=O)N2C (mixture of isomers)

— ChEMBL document CHEMBL4304835 (ACS Med Chem Lett, 2019)
